# Where two headings read alike, the source gives them in different places.
# Key:
# [1] = test system: P. aeruginosa strains resistant and sensitive to colistin; test: MIC of colistin in presence of BBN149 or DMSO, P. aeruginosa strains; format: cell-based; settings: for MIC of colistin with 0.6% DMSO as a control: colistin without BBN149
# Protocol: (§1) All the colistin-resistant strains used depend on the aminoarabinosylation of lipid A as a mechanism of resistance to colistin (Lo Sciuto e Imperi, 2018; Esposito et al., 2018). […] MIC essays were performed in 96-well microtitration plates, using previously characterized P. aeruginosa and K. pneumoniae strains (Lo Sciuto e Imperi, 2018; Esposito et al., 2018). […] At least three independent experiments were conducted for each strain.
# [2] = test system: colistin-resistant clinical strains of Klebsiella pneumoniae; test: MIC of colistin in presence of BBN149 or DMSO, K. pneumoniae clinical strains; format: cell-based; settings: for MIC of colistin with 0.6% DMSO as a control: colistin without BBN149
# Protocol: as §1
# [3] = test system: 16HBE cells (human epithelial cells of bronchial origin); test: Cell viability test (MTT reduction);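 further: formazan absorbance at 570 nm after MTT reduction, corrected for cell-free blank wells, reported relative to untreated cells, from duplicate wells over three independent repeats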
# Protocol: The cytotoxic potential of the compounds was evaluated on cell cultures in vitro. […] The results are reported in the table as viability (%) compared to untreated cells (Table 4).
# To evaluate the cytotoxic potential of the compounds under examination, the MTT (3-(4,5-dimethylthiazol-2-yl)-2,5-diphenyltetrazolium) reduction test, commonly used to monitor cell viability was used following the exposure to potentially cytotoxic agents. The essay is based on the reduction of MTT to formazan, a compound that assumes a blue colour which can be evaluated by spectrophotometric reading at a wavelength of 570 nm. For the essay we used the 16HBE cell line. […] Each test was performed in duplicate and three independent replicas were made.
# Cell viability was calculated as follows:
# COD570=OD570 of sample−OD570 of wells without cells (white)
# Viability=100−reduction (%)
# where: NT indicates the samples of cells non-threated with the compounds; T the samples of cells treated with the compounds at the different concentrations.
# The mean cell viability values were calculated using the Excel mean and standard deviation functions.
# [4] = test system: P. aeruginosa PA14 col^R 5 (colistin-resistant strain); test: microbe, parasite or virus in culture; format: cell-based; settings: for IC90: read-out: IC90, synergy with colistin (8 μg/ml); for inhibition of bacterial growth in the presence of colistin: colistin 8 μg/ml; for antibacterial activity per se: in the absence of colistin
# Protocol: The compounds identified by in silico screening were tested for their antibacterial activity (in the absence of colistin) and for their synergistic or adjuvant activity with colistin against a colistin-resistant strain of P. aeruginosa grown in the absence or presence of a sub-inhibitory concentration of colistin (8 μg/ml).
# This strain over-expresses the am genes responsible for the modification of lipopolysaccharide by the addition of L-amino-arabinose.
# The strain was grown in Mueller-Hinton (MH) medium for 8 hours, and inoculated at a cell density of ˜10^6/ml in MH medium supplemented or not with colistin at a concentration of 16 μg/ml. […] The microtitration plates were incubated at 37° C. without stirring for 24 hours. Bacterial growth was assessed by measuring absorbance at 600 nm (A600) in a microplate reader (Victor 2^V, Perkin-Elmer). […] For each compound three independent experiments were conducted, and the averages of the values obtained in the three experiments are considered to determine the values of IC50 e IC90.
# [5] = test system: P. aeruginosa PA14 col^R 5 (colistin-resistant strain); test: Checkerboard assay compound/colistin; format: cell-based
# Protocol: The checkerboard essays were performed in microtiter plates with 96 wells, aliquoting in each column of wells 50 μl of MH medium containing decreasing concentrations of colistin (dilutions in reason of 2 from 384 to 1.5 μg/ml) or without colistin, and in each row of wells further 50 μl of MH medium containing decreasing concentrations of compound of interest (dilutions in reason 2 from […]) or without compound. Finally, 50 μl of the inoculum of the PA14 col^R 5 strain were added to each well at a concentration of ˜1.5×10^6 cells/ml in MH medium, so as to reach a final volume of 150 μl, a bacteria concentration equal to […], colistin concentrations in the range 0-128 μg/ml and concentrations of compounds of interest in the range 0-125 μM. Plates were incubated at 37° C. without shaking for 24 hours, and bacterial growth was assessed by measuring the A600 in a microplate reader (Victor 2^V, Perkin-Elmer). Three independent experiments were conducted for each compound, and the averages of the values obtained in the three experiments were considered to determine the IC90 values.
# [6] = 16HBE, 1.95 μM, 18 hours, MTT, vs untreated cells
# [7] = 16HBE, 3.91 μM, 18 hours, MTT, vs untreated cells
# [8] = 16HBE, 7.81 μM, 18 hours, MTT, vs untreated cells
# [9] = 16HBE, 15.63 μM, 18 hours, MTT, vs untreated cells
# [10] = 16HBE, 31.25 μM, 18 hours, MTT, vs untreated cells
# [11] = 16HBE, 62.5 μM, 18 hours, MTT, vs untreated cells
# [12] = 16HBE, 125 μM, 18 hours, MTT, vs untreated cells
# [13] = 16HBE, 250 μM, 18 hours, MTT, vs untreated cells
# [14] = Pseudomonas aeruginosa, PA14, 24 h, read-out: IC50 without colistin
# [15] = read-out: IC50, synergy with colistin (8 μg/ml), PA14 ColR5, colistin 8 μg/ml (sub-inhibitory), minimum concentration causing at least 50% growth inhibition, 24 h
# [16] = compound ≥31 μM, MIC 64 to 8 μg/ml, PA14 col^R 5
# [17] = PA14 ColR5, colistin 8 μg/ml (sub-inhibitory), minimum concentration causing at least 90% growth inhibition, 24 h
compound,measurement,setting,value
colistin [reference compound],MIC of colistin with 0.6% DMSO as a control,[1]; strain KK1,0.5 µg/mL
same,MIC of colistin with 0.6% DMSO as a control,[1]; strain KK1 col^R 1,128 µg/mL
same,MIC of colistin with 0.6% DMSO as a control,[1]; strain KK27,0.5 µg/mL
same,MIC of colistin with 0.6% DMSO as a control,[1]; strain KK27 col^R 6,64 µg/mL
same,MIC of colistin with 0.6% DMSO as a control,[1]; strain PA14,0.5 µg/mL
same,MIC of colistin with 0.6% DMSO as a control,[1]; strain PA14 col^R 5,64 µg/mL
same,MIC of colistin with 0.6% DMSO as a control,[1]; strain TR1,0.5 µg/mL
same,MIC of colistin with 0.6% DMSO as a control,[1]; strain TR1 col^R 6,16 µg/mL
same,MIC of colistin with 0.6% DMSO as a control,[2]; strain KP-Mo-3,128 µg/mL
same,MIC of colistin with 0.6% DMSO as a control,[2]; strain KP-Mo-5,128 µg/mL
same,MIC of colistin with 0.6% DMSO as a control,[2]; strain KP-Mo-6,32 µg/mL
same,MIC of colistin with 0.6% DMSO as a control,[2]; strain KP-Mo-11,64 µg/mL
same,MIC of colistin with 0.6% DMSO as a control,[2]; strain KP-Mo-16,64 µg/mL
"C[C@@]12CCC3[C@@](CCC4[C@@](C)(COC(=O)C(=O)O)CCC[C@]43C)(CC1)C2 (stereo partly drawn) [FDO-H, ent-beyeran-18-O-oxalic acid]",Average percentage of cell viability (±standard deviation),[3]; [6],106.31 ± 17.23%
same,Average percentage of cell viability (±standard deviation),[3]; [7],94.57 ± 12.67%
same,Average percentage of cell viability (±standard deviation),[3]; [8],100.25 ± 23.84%
same,Average percentage of cell viability (±standard deviation),[3]; [9],94.06 ± 3.88%
same,Average percentage of cell viability (±standard deviation),[3]; [10],93.65 ± 11.27%
same,Average percentage of cell viability (±standard deviation),[3]; [11],97.14 ± 12.19%
same,Average percentage of cell viability (±standard deviation),[3]; [12],98.42 ± 16.71%
same,Average percentage of cell viability (±standard deviation),[3]; [13],76.51 ± 12.64%
same,IC50,[4]; [14],< 250 µM
same,IC50,[4]; [15],7.81 µM
same,concentration of compound reducing MIC of colistin by 4 times,[5],≥ 4 µM
same,reduction of MIC of colistin (times),"[5]; compound ≥4 μM, PA14 col^R 5",4 times
same,reduction of MIC of colistin (times),[5]; [16],8 times
"C[C@]12C=C[C@@]3(CC[C@@H]4[C@@](C)(COC(=O)C(=O)O)CCC[C@@]4(C)[C@@H]3CC1)C2 [BBN149, ent-beyer-15-en-18-O-oxalic acid]",activity on colistin-sensitive strains,"[1]; 60 μM BBN149, colistin-sensitive P. aeruginosa strains",no relevant activity
same,MIC of colistin in the presence of 60 μM BBN149,[1]; strain KK1,1 µg/mL
same,MIC of colistin in the presence of 60 μM BBN149,[1]; strain KK1 col^R 1,8 µg/mL
same,MIC of colistin in the presence of 60 μM BBN149,[1]; strain KK27,1 µg/mL
same,MIC of colistin in the presence of 60 μM BBN149,[1]; strain KK27 col^R 6,4 µg/mL
same,MIC of colistin in the presence of 60 μM BBN149,[1]; strain PA14,1 µg/mL
same,MIC of colistin in the presence of 60 μM BBN149,[1]; strain PA14 col^R 5,8 µg/mL
same,MIC of colistin in the presence of 60 μM BBN149,[1]; strain TR1,1 µg/mL
same,MIC of colistin in the presence of 60 μM BBN149,[1]; strain TR1 col^R 6,4 µg/mL
same,Average percentage of cell viability (±standard deviation),[3],86.07 ± 5.30%
same,Average percentage of cell viability (±standard deviation),[3]; [6],94.15 ± 6.34%
same,Average percentage of cell viability (±standard deviation),[3]; [7],90.17 ± 7.35%
same,Average percentage of cell viability (±standard deviation),[3]; [8],86.13 ± 2.37%
same,Average percentage of cell viability (±standard deviation),[3]; [9],90.80 ± 6.31%
same,Average percentage of cell viability (±standard deviation),[3]; [11],76.33 ± 2.65%
same,Average percentage of cell viability (±standard deviation),[3]; [12],71.99 ± 5.18%
same,Average percentage of cell viability (±standard deviation),[3]; [13],65.51 ± 4.05%
same,MIC of colistin in the presence of 60 μM BBN149,[2]; strain KP-Mo-3,16 µg/mL
same,MIC of colistin in the presence of 60 μM BBN149,[2]; strain KP-Mo-5,8 µg/mL
same,MIC of colistin in the presence of 60 μM BBN149,[2]; strain KP-Mo-6,4 µg/mL
same,MIC of colistin in the presence of 60 μM BBN149,[2]; strain KP-Mo-11,8 µg/mL
same,MIC of colistin in the presence of 60 μM BBN149,[2]; strain KP-Mo-16,8 µg/mL
same,IC50,"[4]; Pseudomonas aeruginosa, PA14, 24 h, read-out: IC50, synergy with colistin (8 μg/ml)",15.6 µM
same,IC50,[4]; [14],> 250 µM
same,IC90,"[4]; Pseudomonas aeruginosa, PA14, 24 h",31.2 µM
same,inhibition of bacterial growth in the presence of colistin,[4],able to inhibit bacterial growth in the presence of colistin
same,antibacterial activity per se,[4],none of the compounds showed antibacterial activity per se
same,reduction of MIC of colistin (times),[5],4 times
same,concentration of compound reducing MIC of colistin by 4 times,"[5]; MIC of colistin 64 to 16 μg/ml, PA14 col^R 5",≥ 16 µM
same,reduction of MIC of colistin (times),[5]; [16],8 times
"C[C@@]12CCC3[C@@](CCC4[C@@]3(C)CCC[C@@]4(C)C(=O)OC3OC(CO)C(O)C(O)C3O)(CC1)C2 (stereo partly drawn) [SR4, glucopyranosyl β-D ester of ent-beyeran-19-oic acid]",melting point,,160 °C
same,Average percentage of cell viability (±standard deviation),[3]; [6],96.35 ± 9.42%
same,Average percentage of cell viability (±standard deviation),[3]; [7],92.31 ± 3.26%
same,Average percentage of cell viability (±standard deviation),[3]; [8],92.44 ± 2.11%
same,Average percentage of cell viability (±standard deviation),[3]; [9],97.27 ± 5.61%
same,Average percentage of cell viability (±standard deviation),[3]; [10],101.69 ± 4.39%
same,Average percentage of cell viability (±standard deviation),[3]; [11],99.27 ± 2.43%
same,Average percentage of cell viability (±standard deviation),[3]; [12],106.23 ± 5.52%
same,Average percentage of cell viability (±standard deviation),[3]; [13],−1.11 ± 2.02%
same,reduction in cell viability,"[3]; 16HBE, highest concentration (250 μM), 18 hours",total reduction of cell viability
same,IC50,[4]; [14],> 250 µM
same,IC90,[4]; [17],> 250 µM
same,concentration of compound reducing MIC of colistin by 4 times,[5],125 µM
same,reduction of MIC of colistin (times),"[5]; compound 125 μM only, PA14 col^R 5",4 times
"C[C@]12C=C[C@@]3(CCC4[C@@](C)(COC(=O)CCC(=O)O)CCC[C@@]4(C)C3CC1)C2 (stereo partly drawn) [FDS, ent-beyer-15-en-18-O-succinic acid]",Average percentage of cell viability (±standard deviation),[3],102.95 ± 6.74%
same,Average percentage of cell viability (±standard deviation),[3]; [6],98.93 ± 5.38%
same,Average percentage of cell viability (±standard deviation),[3]; [7],95.34 ± 8.28%
same,Average percentage of cell viability (±standard deviation),[3]; [8],93.53 ± 2.01%
same,Average percentage of cell viability (±standard deviation),[3]; [9],99.77 ± 6.58%
same,Average percentage of cell viability (±standard deviation),[3]; [11],102.15 ± 3.15%
same,Average percentage of cell viability (±standard deviation),[3]; [12],105.88 ± 1.31%
same,Average percentage of cell viability (±standard deviation),[3]; [13],86.12 ± 3.18%
same,IC50,[4]; [14],> 250 µM
same,inhibition of bacterial growth in the presence of colistin,[4],able to inhibit bacterial growth in the presence of colistin
same,antibacterial activity per se,[4],none of the compounds showed antibacterial activity per se
same,IC50,[4]; [15],31.2 µM
same,IC90,[4]; [17],> 250 µM
